In publication PMC11288129, “Diversely evolved xibalbin variants from remipede venom inhibit potassium channels and activate PKA-II and Erk1/2 signaling” (BMC Biology, 2024):

Assays:
Type in all cases: cell-based
HEK293T cells = experiment: Ca2+ influx induction, Fluo-8 calcium imaging; settings: HEK293 cells
Protocol: We examined the potential of xibalbins in a concentration range of 0.25 to 25 µg/ml regarding their effects on Ca^2+ influx in HEK293 cells, which express calcium channels. […] However, exposure to none of the four xibalbin variants by itself did increase [Ca^2+]i as measured by Fluo-8 calcium imaging assay. Additionally, none of the xibalbin variants modulated forskolin-induced [Ca^2+]i increase (Additional File 7: Figure S5 A). We also evaluated the effect of xibalbins on cAMP synthesis. However, xibalbins had no effect on increasing cAMP synthesis in HEK293 cells or on preventing the forskolin-induced cAMP synthesis (Additional File 7: Figure S5 B).
Supplementary file 12915_2024_1955_MOESM7_ESM.jpg: Additional file 7: Figure S5. […] A threshold of fluorescence intensity was defined using cells before treatment, all cells above the threshold level were counted. […] For the induction assay (left panel), the luminescence was detected (background, 3 measurements every 5 min) and then the xibalbins (0.25, 2.5, 25 μg/ml) or 5 μM forskolin were added to detect the luminescence (3 measurements/5 min) using a plate reader (Spark, Tecan, Männedorf, Switzerland). For the inhibition assay (right panel), the xibalbin-treated cells were incubated with 5 μM forskolin to detect the luminescence (3 measurements/5 min). […] After 24 h NO was determined in supernatants with the Griess method. […]

[1] = tested on: PKA-II (phospho-RIIα/β) in rat DRG neurons; experiment: High-content imaging of PKA-II activity (pRII) in DRG sensory neurons
Protocol: (§1) To gauge sensory neuron activity in response to various activating stimuli, including electrical activity, phosphorylation state detection of protein kinase A type II (PKA-II) and MAP kinase Erk1/2 can act as surrogate measurements. Consequently, we tested for increased phosphorylation states in a concentration-dependent manner following exposure to xibalbins. Dissociated DRG neurons were cultured overnight and then exposed to increasing concentrations of the corresponding xibalbins for 5 min and 30 min, respectively. As a positive control, forskolin (Fsk) was also used to induce cAMP synthesis. The activity of PKA-II was monitored by antibodies directed against the phosphorylation site of the inhibitory regulatory subunits RIIα/β, which is exclusively accessible when the catalytic kinase domain is released during kinase activation. For measuring Erk1/2 activity, phospho-sites on Erk1/2 (T202/Y204) were monitored through immunofluorescence, as these sites are phosphorylated during activation. Cellular images were captured using HCI microscopy (Fig. 8A), and the average intensity of each phospho-antibody was quantified (Fig. 8B).
(§2) Fig. 8 A Representative images of rat DRG neurons stimulated with PBS (Ctrl) and xib1b (0.8 µg/µL). Cells were stained for UCHL1, pRII, pERK1/2, and Hoechst followed by fixation and staining with standard immunocytochemistry protocols. Green-encircled neurons indicate automatically selected objects. Scale bar: 100 µm. B Mean intensities of UCHL1, pRII, and pERK1/2. The same UCHL1 intensities were observed among tested groups. Forskolin (Fsk), an activator of adenylyl cyclase, was used as a positive control. Fsk at 6 µM concentration induced an increase in pRII and pERK1/2 intensities at 5 and 30 min. Number of analyzed cells per replica: 750 ± 200. Eight independent replicas. C–F Concentration responses of xibalbin toxins (0.005 to 0.8 µg/µL) and mean intensities of pRII and pERK1/2 at 5 min and 30 min. G–H Size versus pRII and pErk1/2 intensities of cells treated with 0.8 µg/µL of xib1 and xib13. Small-sized cells were responding to xibalbins. Statistical significance was assessed using one-way ANOVA with Dunnett’s post hoc test. Data represent mean ± S.E.M (standard error of the mean), n = 4, see “Methods” for details and Additional File 6: Table S2 for individual data values
(§3) Male Sprague Dawley rats (250–400 g, 8–16 weeks old) were obtained from Envigo. Rats were kept in 12 h of light/darkness cycles. All experiments were performed in accordance with the German animal welfare law with permission of the District Government for Nature and Environment, NRW (84–02.05.20.13.045, 4.18.003). Rats were scarified by slow inhalation of CO2 which was followed by decapitation. DRGs were extracted from rats, deheated, pooled, and incubated in Neurobasal A/B27 medium (Invitrogen, #12349–015) supplemented with B-27 (Invitrogen #17504), L-glutamine 1:400, L-glutamate 1:270.3, and penicillin/streptomycin 1:100 containing 0.2 U/mL collagenase P (collagenase P, Roche, #1213857) and incubated for 1 h at 37 °C, 5% CO2. DRGs were dissociated with pasteur pipettes and axon stumps were separated by BSA (Sigma-Aldrich, # A2153-100G) gradient centrifugation (14% BSA, 120 g, 8 min). Cells were resuspended in NBA medium, plated in 96-well imaging plate (Greiner BioOne Sensoplate, Black, #655896) precoated with poly-L-ornithine hydrochloride (0.1 mg/ml Sigma, #P2533)/laminin (5 µg/ml Invitrogen, #23017–015), and incubated overnight at 37 °C, 5% CO2.
(§4) DRGs were stimulated after overnight incubation. Compounds were prepared as tenfold concentrated stock solutions, diluted in PBS (PAA, cat# H15-002), in v-bottom plates; 50 µL media from culture wells were mixed with the […] stock solutions, and 50 µL added back to the respective wells. Stimulation was performed with automated multichannel pipette and cells were kept in heated block during the stimulation. […]

[2] = tested on: Erk1/2 (T202/Y204) in rat DRG neurons; experiment: High-content imaging of pERK1/2 in DRG sensory neurons; settings: positive control Fsk 6 µM; 5 and 30 min
Protocol: as §1, §2, §3, §4

C=C[C@@]1(C)CC(=O)[C@]2(O)[C@@]3(C)[C@@H](O)CCC(C)(C)[C@@H]3[C@H](O)[C@H](OC(C)=O)[C@@]2(C)O1 [Forskolin, reference compound]
increase of [Ca2+]i by positive control (HEK293T cells): increased [Ca^2+]i
pRII intensity ([1]; positive control Fsk 6 µM, 5 and 30 min): increase
pRII response by neuron size ([1]; xibalbins 0.8 µg/µL): activated both small and large-sized sensory neurons
pERK1/2 intensity [2]: increase
